The source of these data is patent publication US9029368B2, “3,7-disubstituted octahydro-2H-pyrido[4,3-E][1,3]oxazin-2-one antibiotics” (Actelion Pharmaceuticals Ltd., priority 2011, dated 2015).

Each structure is given as a SMILES string. In brackets after ≈: the same amount, converted by molar mass.

The subject of this assay is S. aureus 29213. Kind of assay: Bacterial growth minimal inhibitory concentrations (microdilution in cation-adjusted Mueller-Hinton Broth, CLSI M7-A7). To be noted: for MIC: Staphylococcus aureus, 29213, microdilution method. It is filed as cell-based. The method, then: Bacterial Growth Minimal Inhibitory Concentrations: Minimal inhibitory concentrations (MICs; mg/l) were determined in cation-adjusted Mueller-Hinton Broth by a microdilution method following the description given in “Methods for Dilution Antimicrobial Susceptibility Tests for Bacteria that Grow Aerobically”, Approved standard, 7th ed., Clinical and Laboratory Standards Institute (CLSI) Document M7-A7, Wayne, Pa., USA, 2006. All Example compounds were tested against several Gram positive and Gram negative bacteria.

In turn, `O=C1O[C@H]2CN(CC3Cn4c(=O)ccc5ncc(F)c3c54)CC[C@@H]2CN1c1ccc2c(c1)OCCO2` (mixture of isomers) [Example 30, (RS)-4-[(4aR*,8aR*)-3-(2,3-dihydro-benzo[1,4]dioxin-6-yl)-2-oxo-octahydro-pyrido[4,3-e][1,3]oxazin-7-ylmethyl]-3-fluoro-4,5-dihydro-pyrrolo[3,2,1-de][1,5]naphthyridin-7-one] returned a minimal inhibitory concentration (MIC) of 0.5 µg/mL (≈ 1.02 µM).
Same read-out and setting: to `COc1ccc2ncc(=O)n(CCN3CC[C@@H]4CN(c5cc6c(nn5)OCCS6)C(=O)O[C@H]4C3)c2n1` (racemic) [Example 28, rac-(4aR*,8aR*)-3-(6,7-dihydro-8-oxa-5-thia-1,2-diaza-naphthalen-3-yl)-7-[2-(6-methoxy-3-oxo-3H-pyrido[2,3-b]pyrazin-4-yl)-ethyl]-octahydro-pyrido[4,3-e][1,3]oxazin-2-one] belongs not above 0.031 µg/mL; to `COc1ccc2ncc(F)c(CCN3CC[C@@H]4CN(c5ccc6c(c5)NC(=O)CO6)C(=O)O[C@H]4C3)c2n1` (racemic) [Example 5, rac-(4aR*,8aR*)-7-[2-(3-fluoro-6-methoxy-[1,5]naphthyridin-4-yl)-ethyl]3-(3-oxo-3,4-dihydro-2H-benzo[1,4]oxazin-6-yl)-octahydro-pyrido[4,3-e][1,3]oxazin-2-one], not above 0.031 µg/mL; to `COc1ccc2ncc(F)c(CCN3CC[C@H]4CN(c5ccc6c(n5)NC(=O)CS6)C(=O)O[C@@H]4C3)c2n1` (single isomer, unassigned) [Example 21], not above 0.031 µg/mL.
Still for that read-out and setting: then `COc1ccc2ncc(F)c([C@H](O)CN3CC[C@H]4CN(c5ccc6c(c5)OCCO6)C(=O)O[C@@H]4C3)c2n1` (single isomer, unassigned) [Example 14], with not above 0.031 µg/mL; and `COc1ccc2ccc(=O)n(CCN3CC[C@@H]4CN(c5ccc6c(n5)NC(=O)CO6)C(=O)O[C@H]4C3)c2n1` (racemic) [Example 25, rac-(4aR*,8aR*)-7-[2-(7-methoxy-2-oxo-2H-[1,8]naphthyridin-1-yl)-ethyl]-3-(3-oxo-3,4-dihydro-2H-pyrido[3,2-b][1,4]oxazin-6-yl)-octahydro-pyrido[4,3-e][1,3]oxazin-2-one], with not above 0.031 µg/mL; and `COc1ccc2ccc(=O)n(CCN3CC[C@@H]4CN(c5ccc6c(n5)NC(=O)CS6)C(=O)O[C@H]4C3)c2n1` (racemic) [Example 26, rac-(4aR*,8aR*)-7-[2-(7-methoxy-2-oxo-2H-[1,8]naphthyridin-1-yl)-ethyl]-3-(3-oxo-3,4-dihydro-2H-pyrido[3,2-b][1,4]thiazin-6-yl)-octahydro-pyrido[4,3-e][1,3]oxazin-2-one], with not above 0.031 µg/mL.
As to `O=C1COc2ccc(N3C[C@H]4CCN(C[C@H]5Cc6c(F)ccc7ccc(=O)n5c67)C[C@@H]4OC3=O)nc2N1` (relative stereo) [Example 33, (4aR*,8aR*)-7-0(R)-9-fluoro-4-oxo-2,4-dihydro-1H-pyrrolo[3,2,1-ij]quinolin-2-yl)methyl)-3-(3-oxo-3,4-dihydro-2H-pyrido[3,2-b][1,4]oxazin-6-yl)octahydro-2H-pyrido[4,3-e][1,3]oxazin-2-one], where the note is “microdilution method”, the “MIC for S. aureus 29213” value amounted to 0.125 µg/mL.

One may read the MIC as the smallest concentration in the dilution series that meets the test's criterion for growth inhibition. High values mean weaker potency, low ones greater potency.
